# In US5576438A, “Isoserine derivatives and their use as leukotriene antagonists” (Leo Pharmaceutical Products Ltd. A/S (L.o slashed.vens …, priority 1992, dated 1996):
# Structures can show the parent of a compound that is named as a salt. Where two headings read alike, the source gives them in different places.
# Biological target: T1, LTD4 receptor (Cavia porcellus, UniProt Q2NNR5)
# T1 construct: guinea-pig lung membranes; from tissue; host or cells: guinea-pig lung membranes
# T1 sequence (Q2NNR5 1-340): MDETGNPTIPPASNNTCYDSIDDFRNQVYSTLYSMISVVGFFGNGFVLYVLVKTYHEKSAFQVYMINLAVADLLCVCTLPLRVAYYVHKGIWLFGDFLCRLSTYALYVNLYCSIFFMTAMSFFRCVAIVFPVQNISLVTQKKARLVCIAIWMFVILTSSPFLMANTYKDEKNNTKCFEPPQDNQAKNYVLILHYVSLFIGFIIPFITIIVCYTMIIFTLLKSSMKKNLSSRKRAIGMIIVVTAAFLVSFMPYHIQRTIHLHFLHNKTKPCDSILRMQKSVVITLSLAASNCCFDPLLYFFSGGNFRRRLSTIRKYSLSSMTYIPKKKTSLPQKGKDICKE
# Assay: [3H]LTD4 competition binding to guinea-pig lung membranes
# Conditions: negative logarithm of molar concentration, read-out: pIC50 for [3H]LTD4 binding (converted)
# Source text: It is of importance to investigate the receptor binding properties of leukotriene antagonists in relation to their inhibition of smooth muscle contraction. Receptor binding studies may be performed with guinea-pig lung membranes in a direct competition assay between a leukotriene antagonist and [^3 H]LTD4 for binding to the LTD4 receptor ^10,^11. […] These values indicate that the affinities of the compounds for the LTD4 receptor are very high, also in the presence of albumin.
# [1] = presence of 0.1% human serum albumin
IC50 (absence of human serum albumin),IC50 [1],SMILES
2 nM,6.31 nM,"O=C(O)[C@H](O)[C@H](Nc1cccc(/C=C/c2ccc3ccc(Cl)cc3n2)c1)c1ccccc1 (relative stereo) [Example 6, E-(2R,3R;2S,3S)-N-3-[2-(7-chloroquinolyl)-2-ethenyl]-phenyl-3-phenyl isoserine, sodium salt]"
2.51 nM,20 nM,"O=C(O)[C@H](O)[C@H](Nc1cccc(/C=C/c2ccc3ccccc3n2)c1)c1ccccc1 (relative stereo) [Example 17, E-(2R,3R;2S,3S)-3-phenyl-N-3-[(2-quinolyl)-2-ethenyl]-phenyl isoserine, sodium salt]"
